Test results from paper PMC8712301, “Novel CYP11B-ligand [^123/131I]IMAZA as promising theranostic tool for adrenocortical tumors: comprehensive preclinical characterization and first clinical experience” (European Journal of Nuclear Medicine and Molecular Imaging, 2021).
Read-outs that look alike come from different tables or passages of the source.

Assays:
human CYP11B1 = target: T1, human CYP11B1 (Homo sapiens, UniProt P15538); assay: Inhibition of CYP11B1 in stably transfected Y1-hsCyp11B1 cells; assay type: cell-based
T1 construct: expressed in transfected cells; host or cells: murine adrenocortical cancer cell line Y1 (Y1-hsCyp11B1, stably transfected)
T1 sequence (P15538 25-503): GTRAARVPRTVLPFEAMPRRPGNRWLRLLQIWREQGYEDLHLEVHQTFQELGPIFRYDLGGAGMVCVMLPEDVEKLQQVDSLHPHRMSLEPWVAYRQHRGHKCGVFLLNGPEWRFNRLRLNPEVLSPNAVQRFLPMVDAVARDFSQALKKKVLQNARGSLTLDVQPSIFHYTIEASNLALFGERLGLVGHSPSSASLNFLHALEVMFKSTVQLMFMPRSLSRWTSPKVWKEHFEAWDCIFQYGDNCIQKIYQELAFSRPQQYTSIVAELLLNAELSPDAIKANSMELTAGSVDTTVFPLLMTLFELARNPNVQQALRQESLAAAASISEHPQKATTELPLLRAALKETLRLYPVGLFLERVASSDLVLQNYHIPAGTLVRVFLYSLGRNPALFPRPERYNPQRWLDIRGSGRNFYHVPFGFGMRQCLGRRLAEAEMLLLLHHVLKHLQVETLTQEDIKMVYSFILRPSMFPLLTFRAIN
Method: (§1) The human adrenocortical cell line NCI-H295 and the murine adrenocortical cancer cell line Y1 transfected with either human CYP11B1 or CYP11B2 were used for determination of IC50 values as already described.
(§2) IC50 values were calculated from all values using the program GraphPad Prism5®. All results are expressed as mean ± standard deviation.

[1] = Metabolic inactivation by human liver microsomes in vitro (radio-HPLC); assay type: in vitro ADME; conditions: for half-life at 0.17 MBq/ml: human, pH 7.2, 125I-labeled compound, liver microsomes 0.2 mg/ml, NADPH, 37 °C, mean ± S.D., read-out: In vitro T1/2 in human liver microsomes; for Metabolic stability compared with [125I]IMTO: radio-HPLC
Method: Metabolic degradation was determined by co-incubation of the tracers with human liver microsomes (Sigma, M0317). Experiments were conducted in triplicates. Incubation mixtures consisted of liver microsomes (0.2 mg/ml), the respective ^125I-labeled compound (0.1 MBq), MgCl2 (3.3 mM), and NADPH (1.3 mM) in a total volume of 0.6 ml K3PO4 puffer (25 mM, pH 7.2). The reaction was started with the addition of NADPH and incubated at 37 °C. At predefined time points, aliquots were removed, and the reaction was terminated by adding 160 µL ice-cold methanol. After centrifugation (5000 × g, 4 °C for 4 min), the supernatant was analyzed by radio-HPLC (see experimental details and Supplementary Fig. 1 in Supplement).

NCI-H295 cells = assay: Steroid secretion in NCI-H295 cells after 48-h incubation; assay type: cell-based, human; conditions: for Production of the investigated hormones: higher concentrations; for Upstream steroids 17-OH-progesterone and androstenedione: lower concentrations 0.1-10 nM
Method: as §1
Fig. 2 Steroid secretion in NCI-H295 cells after 48-h incubation with IMTO, IMAZA, 3-tetrahydrofurylester, and 2,2-difluoroethylester (0.1–10,000 nM). NCI-H295 cells were incubated for 48 h with the four compounds. Each experiment was performed in triplicates. At the end of the incubation period, steroid hormones (cortisol, aldosterone, 17-OH-P, and androstenedione) were determined in the cell supernatant by commercially available assays

human CYP11B2 = target: T2, human CYP11B2 (Homo sapiens, UniProt P19099); assay: Inhibition of CYP11B2 in stably transfected Y1-hsCyp11B2 cells; assay type: cell-based
T2 construct: expressed in transfected cells; host or cells: murine adrenocortical cancer cell line Y1 (Y1-hsCyp11B2, stably transfected)
T2 sequence (P19099 25-503): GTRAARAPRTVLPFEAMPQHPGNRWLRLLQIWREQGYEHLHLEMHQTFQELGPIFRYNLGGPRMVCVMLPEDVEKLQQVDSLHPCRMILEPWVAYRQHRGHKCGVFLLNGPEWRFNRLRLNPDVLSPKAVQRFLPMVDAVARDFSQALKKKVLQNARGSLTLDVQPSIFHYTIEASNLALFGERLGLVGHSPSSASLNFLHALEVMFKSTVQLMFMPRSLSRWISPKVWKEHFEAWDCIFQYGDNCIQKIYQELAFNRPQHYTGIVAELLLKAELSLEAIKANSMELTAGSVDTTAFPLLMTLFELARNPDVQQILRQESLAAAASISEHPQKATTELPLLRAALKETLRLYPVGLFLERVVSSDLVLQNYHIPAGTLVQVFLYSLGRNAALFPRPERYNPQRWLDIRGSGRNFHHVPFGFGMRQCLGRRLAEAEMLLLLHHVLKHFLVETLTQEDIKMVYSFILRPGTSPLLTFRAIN
Method: as §1, §2

[2] = Lipophilicity estimated from HPLC retention times
advanced ACC [3] = system: advanced ACC; design: method as in PMID 15898346, PMID 29452402; conditions: advanced ACC ref 10, 11; cited from earlier work
metastatic ACC [4] = assay: Dosimetry and endoradiotherapy with [131I]IMAZA in a patient with metastatic ACC; assay type: in vivo, human; conditions: patient #1, derived from diagnostics with [123I]IMTO
Text: Patient #1 had experienced disease progression with a more than fourfold increase in their dominant lesions within only 4 months after a phase of disease stabilization after standard treatment with mitotane and eight courses of combination chemotherapy with etoposide, doxorubicin, and cisplatin. They received therapeutic doses with 28.2 GBq [^131I]IMAZA 1 month and with 30.5 GBq [^131I]IMAZA 7 months after the evaluation with [^123I]IMAZA. Prior to the first treatment, the absorbed dose to the blood was measured with a tracer activity of 72 MBq [^131I]IMAZA as a surrogate for the exposure of the dose-limiting organ, the red bone marrow. The absorbed dose to the blood was estimated from assessments of the activity kinetics in total body and blood up to 48 h when the mean activity concentrations had dropped to 5% of the values at 5 min after the administration in the total body and to 1% in the blood. During therapy, the total body activity retention was measured with a survey meter in the ceiling over the patient’s bed. Gamma camera whole body scans accompanied by blood sampling were acquired starting 4 days post-administration after the first and 2 days after the second therapy until dismissal. SPECT/CT imaging was performed after 4 and 5 days, respectively.
Tumor evaluation was performed by [^18F]FDG PET/CT at baseline and 2, 5, 8, 11, 14, and 21 months after administration of the first treatment dose. Subsequently, the patient declined further follow-up imaging or additional therapeutic interventions.

metastatic ACC [5] = assay: as above; assay type: in vivo, human; conditions: patient #1, derived from diagnostics with [123I]IMTO; remark: listed apart in the source
advanced ACC [6] = assay: Diagnostic imaging and biokinetics with [123I]IMTO and [123I]IMAZA in patients with advanced ACC; assay type: in vivo, human; conditions: kinetics recalculated for 131I from 123I diagnostics in patients
Method: Three patients (#1, #2, and #3) were investigated by [^123I]IMAZA (administered doses, 117, 163, and 182 MBq, respectively) and subsequently by [^123I]IMTO (176, 169, and 146 MBq, respectively). The time interval between the imaging studies was at least 5 days. Scintigraphic imaging was performed using a Siemens Symbia dual-head gamma camera equipped with medium-energy parallel-hole collimators. Activity concentration was measured in whole blood samples drawn at 2 min, 5 min, 15 min, 1 h, 2.5 h, 5 h, and 23 h after the administration. Plasma activity was analyzed in patient #1.

C[C@H](c1ccc(I)cc1)n1cncc1C(=O)N1CCC1 [Compound 5, (R)-1-[1-(4-Iodophenyl)ethyl]-1H-imidazole-5-carboxylic acid azetidinylamide]
IC50 (human CYP11B1; stably transfected Y1-hsCyp11B1 cells, substrate deoxycortisol (1 µM), mean of at least three experiments in duplicates, read-out: IC50 CYP11B1): 3.2 ± 0.1 nM
half-life at 0.17 MBq/ml ([1]; human liver microsomes): 26.1 ± 5.5 min
Production of the investigated hormones (NCI-H295 cells): completely stopped
Upstream steroids 17-OH-progesterone and androstenedione (NCI-H295 cells): accumulation of the upstream steroids 17-OH-progesterone and androstenedione was observed
IC50 (human CYP11B2; stably transfected Y1-hsCyp11B2 cells, substrate 11-deoxycorticosterone (1 µM), mean of at least three experiments in duplicates, read-out: IC50 CYP11B2): 1.2 ± 0.1 nM
Lipophilicity compared with IMTO [2]: lower

Clc1ccc(C(c2ccccc2Cl)C(Cl)Cl)cc1 (stereo not shown) [mitotane]
Response rate (advanced ACC [3]): ≤ 24%

C[C@H](c1ccc(I)cc1)n1cncc1C(=O)OC1CCOC1 (stereo partly drawn) [Compound 3, (R)-1-[1-(4-Iodophenyl)ethyl]-1H-imidazole-5-carboxylic acid 3-tetrahydrofurylester]
IC50 (human CYP11B1): 5.3 ± 5.9 nM
Metabolic stability compared with [125I]IMTO ([1]; human liver microsomes): nearly equal or even better metabolic stability
half-life at 0.17 MBq/ml [1]: 7.4 ± 2.8 min
Production of the investigated hormones (NCI-H295 cells): completely stopped
Upstream steroids 17-OH-progesterone and androstenedione (NCI-H295 cells): accumulation of the upstream steroids 17-OH-progesterone and androstenedione was observed
IC50 (human CYP11B2): 2.9 ± 1.6 nM
Lipophilicity compared with IMTO [2]: comparable

COC(=O)c1cncn1[C@H](C)c1ccc(I)cc1 [Compound 1, (R)-1-[1-(4-Iodophenyl)ethyl]-1H-imidazole-5-carboxylic acid methyl ester]
melting point: 72 to 74 °C
half-life at 0.17 MBq/ml ([1]; human liver microsomes): 7.3 ± 3.6 min

COC(=O)c1cncn1C(C)c1ccc([131I])cc1 (stereo not shown) [[^131I]IMTO]
Blood absorbed dose (metastatic ACC [4]): 0.17 Gy/GBq
Residence time per liter of whole blood (metastatic ACC [5]): 0.55 h
Mean blood absorbed dose (advanced ACC [6]): 0.11 Gy/GBq

C[C@H](c1ccc(I)cc1)n1cncc1C(=O)OCC(F)F [Compound 4, (R)-1-[1-(4-Iodophenyl)ethyl]-1H-imidazole-5-carboxylic acid 2,2-difluoroethylester]
IC50 (human CYP11B1): 0.3 ± 0.4 nM
Metabolic stability compared with [125I]IMTO ([1]; human liver microsomes): nearly equal or even better metabolic stability
half-life at 0.17 MBq/ml [1]: 7.5 ± 0.87 min
Production of the investigated hormones (NCI-H295 cells): completely stopped
Upstream steroids 17-OH-progesterone and androstenedione (NCI-H295 cells): accumulation of the upstream steroids 17-OH-progesterone and androstenedione was observed
IC50 (human CYP11B2): 4.5 ± 0.5 nM
Lipophilicity compared with IMTO [2]: comparable

C[C@H](c1ccc(I)cc1)n1cncc1C(=O)O [Compound 2, (R)-1-[1-(4-Iodophenyl)ethyl]-1H-imidazole-5-carboxylic acid]
melting point: > 250 °C (dec.)
IC50 (human CYP11B2): 611 ± 1040 nM
